Columns and labels:
KRAS-G12C/SOS1 = target: T1, KRAS-G12C/SOS1 (Homo sapiens, UniProt Q07889); assay: Blocking the binding of KRAS G12C protein to SOS1 (Cisbio KRAS-G12C/SOS1 binding assay kit, TR-FRET); conditions: Tag1-SOS1 and Tag2-KRAS-G12C, TR-FRET 665/620; read-out: IC50 (nM) Inhibition of KRAS-G12C/SOS1 binding
T1 construct: purchased Cisbio 63ADK000CB16PEG
T1 sequence (Q07889 1-1333): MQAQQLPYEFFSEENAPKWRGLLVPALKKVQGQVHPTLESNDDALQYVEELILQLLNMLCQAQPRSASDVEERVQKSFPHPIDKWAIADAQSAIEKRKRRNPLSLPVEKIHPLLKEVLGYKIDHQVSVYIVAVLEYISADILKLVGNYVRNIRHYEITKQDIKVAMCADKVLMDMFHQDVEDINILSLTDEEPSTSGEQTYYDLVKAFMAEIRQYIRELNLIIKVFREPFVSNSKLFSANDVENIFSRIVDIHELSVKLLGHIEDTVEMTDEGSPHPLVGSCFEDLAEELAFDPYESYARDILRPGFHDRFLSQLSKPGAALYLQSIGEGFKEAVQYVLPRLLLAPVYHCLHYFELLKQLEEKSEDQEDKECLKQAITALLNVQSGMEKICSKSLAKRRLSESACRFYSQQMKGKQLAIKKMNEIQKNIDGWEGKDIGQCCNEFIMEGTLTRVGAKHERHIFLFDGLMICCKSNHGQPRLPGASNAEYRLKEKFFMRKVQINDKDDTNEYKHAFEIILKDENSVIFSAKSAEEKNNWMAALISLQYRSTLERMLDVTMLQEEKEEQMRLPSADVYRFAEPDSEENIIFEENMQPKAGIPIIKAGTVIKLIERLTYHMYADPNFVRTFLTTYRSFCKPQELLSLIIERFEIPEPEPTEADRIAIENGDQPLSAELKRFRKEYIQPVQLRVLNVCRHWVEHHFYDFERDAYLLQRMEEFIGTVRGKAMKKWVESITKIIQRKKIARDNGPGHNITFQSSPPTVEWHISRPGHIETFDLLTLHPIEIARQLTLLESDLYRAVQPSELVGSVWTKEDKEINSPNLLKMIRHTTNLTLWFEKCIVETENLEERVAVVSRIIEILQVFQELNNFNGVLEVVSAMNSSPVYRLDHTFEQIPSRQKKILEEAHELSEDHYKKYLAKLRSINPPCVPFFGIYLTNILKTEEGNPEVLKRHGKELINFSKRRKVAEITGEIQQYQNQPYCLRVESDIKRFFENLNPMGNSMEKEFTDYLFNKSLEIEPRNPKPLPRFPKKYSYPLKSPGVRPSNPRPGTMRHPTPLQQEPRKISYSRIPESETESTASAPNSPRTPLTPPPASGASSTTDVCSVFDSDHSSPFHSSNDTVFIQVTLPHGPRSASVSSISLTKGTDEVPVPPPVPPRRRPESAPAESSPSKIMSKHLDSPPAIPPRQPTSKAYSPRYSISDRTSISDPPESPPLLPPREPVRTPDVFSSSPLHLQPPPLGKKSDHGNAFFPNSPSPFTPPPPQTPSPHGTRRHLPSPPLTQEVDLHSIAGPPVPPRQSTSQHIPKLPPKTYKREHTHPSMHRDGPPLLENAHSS
Excerpt: The following method was used to determine the abilities of compounds of the invention to block the interaction of SOS1 with the KRAS G12C protein in vitro. KRAS-G12C/SOS1 BINDING ASSAY KITS (Art. No. 63ADK000CB16PEG) from Cisbio was used in this method. Please refer to the kit instruction for detailed experimental operations.
The experimental process can be briefly described as follows: diluent buffer (Art. No. 62DLBDDF) was used to prepare a working solution with a concentration of 5× for Tag1-SOS1 and Tag2-KRAS-G12C protein. The test compounds were dissolved in DMSO to prepare storage solutions of 10 mM, and then the solutions were diluted with dilution buffer for later use. First, 2 μL of the test compound (the final concentrations of the reaction system were 10000 nM-0.1 nM) was added to the well, then 4 μL of Tag1-SOS1 5× working solution and 4 μL of Tag2-KRAS-G12C 5× working solution were added, and the above mixture was centrifuged, mixed, and stood for 15 minutes; then 10 μL of premixed anti-Tag1-Tb^3+ and anti-Tag2-XL665 were added, and the mixture was incubated at room temperature for 2 hours; finally, a microplate reader was used in […] mode to measure the fluorescence intensity of each well emitting wavelengths of 620 nm and […] under the excitation wavelength of 304 nm, and the fluorescence intensity ratio 665/620 in each well was calculated. Compared with the fluorescence intensity ratio of a control group (0.1% DMSO), the percentage inhibition rates of the test compounds at each concentration were calculated, and the IC50 values of the compounds were obtained by performing nonlinear regression analysis with logarithmic values of the compound concentration-inhibition rate by GraphPad Prism 5 software, which was shown in Table 1.

NCI-H358 cells = assay: Inhibition of NCI-H358 cell proliferation under 3D non-anchored conditions (CellTiter-Glo 3D); type: cell-based; conditions: Homo sapiens, NCI-H358 cells (KRAS G12C mutation), 120 hours
Description: The following method was used to determine the effects of the compounds of the present invention on NCI-H358 cell proliferation under three-dimensional (3D) non-anchored conditions. NCI-H358 cells (containing KRAS G12C mutation) were purchased from the Cell Resource Center of Shanghai Institutes for Biological Sciences, Chinese Academy of Sciences, and cultured in RPMI 1640 medium containing 10% fetal bovine serum, 100 U penicillin, 100 μg/mL streptomycin and 1 mM Sodium Pyruvate. The activities of the cells were determined by CellTiter-Glo® 3D Cell Viability Assay Kit (Promega, Art. No. G9683).
The experimental method was operated according to the steps in the kit instruction, which can be briefly described as follows: the test compounds were first dissolved in DMSO to prepare storage solutions of 10 mM, and then diluted with culture mediums to prepare test samples. The final concentrations of the compounds were 10000 nM to 0.15 nM. Cells in logarithmic phase were inoculated in an ultra-low adsorption 384-well cell culture plate (PerkinElmer, #3830) with 2000 cells per well, and the test compounds were added and cultured for 120 hours. After the culture was completed, 30 μL of CellTiter-Glo 3D detection solution was added to each well, shaken for 30 minutes and then stood for 120 minutes. Then, a Luminescence mode was used to read the luminescence values of each well of the samples on a microplate reader. By comparing with the numerical value of a control group (0.1% DMSO), the percentage inhibition rates of the compounds at each concentration were calculated, and the IC50 values of the compounds inhibiting cell proliferation were obtained by performing nonlinear regression analysis with logarithmic values of the compound concentration-inhibition rate by GraphPad Prism 5 software, which can be seen in Table 4.

Work on `COc1cc2nc(C)nc(N[C@H](C)c3cccc(C#N)c3C)c2cc1N1CCOCC1` [Compound 1, (R)-3-(1-((7-methoxy-2-methyl-6-morpholinoquinazolin-4-yl)amino)ethyl)-2-methylbenzonitrile] yielded an IC50 (KRAS-G12C/SOS1) of 26.2 nM and an IC50 (NCI-H358 cells) of 78.3 nM.

Work on `COc1cc2nc(C)nc(N[C@H](C)c3cccc(C#N)c3C)c2cc1N1CCN(C(C)=O)CC1` [Compound 2, (R)-3-(1-((6-(4-acetylpiperazin-1-yl)-7-methoxy-2-methylquinazolin-4-yl)amino)ethyl)-2-methylbenzonitrile] yielded an IC50 (KRAS-G12C/SOS1) of 20.7 nM and an IC50 (NCI-H358 cells) of 49.6 nM.

`COc1cc2nc(C)nc(N[C@H](C)c3cccc(C#N)c3C)c2cc1N1CCC2(CCOCC2)CC1` [Compound 4, (R)-3-(1-((7-methoxy-2-methyl-6-(3-oxa-9-azaspiro[5.5]undecan-9-yl)quinazolin-4-yl)amino)ethyl)-2-methylbenzonitrile] was tested, and the IC50 (KRAS-G12C/SOS1) was 65.2 nM and the IC50 (NCI-H358 cells) was 7 nM.

`COc1cc2nc(C)nc(N[C@H](C)c3cccc(C#N)c3C)c2cc1N1CCC2(CC1)COC2` [Compound 5, (R)-3-(1-((7-methoxy-2-methyl-6-(2-oxa-7-azaspiro[3.5]nonan-7-yl)quinazolin-4-yl)amino)ethyl)-2-methylbenzonitrile] showed an IC50 (KRAS-G12C/SOS1) of 28 nM and an IC50 (NCI-H358 cells) of 10.7 nM.

Molecule `COc1cc2nc(C)nc(N[C@H](C)c3cccc(C#N)c3C)c2cc1N1CCC2(CCN(C)C2=O)CC1` [Compound 7, (R)-3-(1-((7-methoxy-2-methyl-6-(2-methyl-1-oxo-2,8-diazaspiro[4.5]decan-8-yl)quinazolin-4-yl)amino)ethyl)-2-methylbenzonitrile] has an IC50 (KRAS-G12C/SOS1) of 35.7 nM.

Molecule `COc1cc2nc(C)nc(N[C@H](C)c3cccc(C#N)c3C)c2cc1N1CCC(C#N)CC1` [Compound 8, (R)-1-(4-((1-(3-cyano-2-methylphenyl)ethyl)amino)-7-methoxy-2-methylquinazolin-6-yl)piperidine-4-carbonitrile] has an IC50 (KRAS-G12C/SOS1) of 62 nM.

For `COc1cc2nc(C)nc(N[C@H](C)c3cccc(C#N)c3C)c2cc1N1CCC(C)(O)CC1` [Compound 11, (R)-3-(1-((6-(4-hydroxy-4-methylpiperidin-1-yl)-7-methoxy-2-methylquinazolin-4-yl)amino)ethyl)-2-methylbenzonitrile], the IC50 (KRAS-G12C/SOS1) was 39.5 nM and the IC50 (NCI-H358 cells) was 71.4 nM.

Work on `COc1cc2nc(C)nc(N[C@H](C)c3cccc(C#N)c3C)c2cc1N1CCC2(CC1)CN(C(C)=O)C2` [Compound 19, (R)-3-(1-((6-(2-acetyl-2,7-diazaspiro[3.5]nonan-7-yl)-7-methoxy-2-methylquinazolin-4-yl)amino)ethyl)-2-methylbenzonitrile] yielded an IC50 (KRAS-G12C/SOS1) of 22.3 nM and an IC50 (NCI-H358 cells) of 21.2 nM.

— patent US20240382475A1, “Quinazoline Derivative, Or Preparation Method Therefor And Use Thereof” (Zhejiang Hisun Pharmaceutical Co., Ltd., priority 2021, published 2024)
